Laboratory results published in patent publication US9505798B2, “Steroid compounds as RORyt modulators and uses thereof” (New York University, priority 2010, dated 2016).

Columns and labels:
mouse RORγt = target: T1, mouse RORγt (Mus musculus, UniProt P51450); assay: Drosophila S2 cell RORγt luciferase reporter; type: cell-based; details: for effect on RORγ transcriptional activity: S2 reporter system
T1 construct: mouse RORγt (amino acids 79 to the carboxyl terminal end); expressed in transfected cells
T1 sequence (P51450 79-495 isoform P51450-2): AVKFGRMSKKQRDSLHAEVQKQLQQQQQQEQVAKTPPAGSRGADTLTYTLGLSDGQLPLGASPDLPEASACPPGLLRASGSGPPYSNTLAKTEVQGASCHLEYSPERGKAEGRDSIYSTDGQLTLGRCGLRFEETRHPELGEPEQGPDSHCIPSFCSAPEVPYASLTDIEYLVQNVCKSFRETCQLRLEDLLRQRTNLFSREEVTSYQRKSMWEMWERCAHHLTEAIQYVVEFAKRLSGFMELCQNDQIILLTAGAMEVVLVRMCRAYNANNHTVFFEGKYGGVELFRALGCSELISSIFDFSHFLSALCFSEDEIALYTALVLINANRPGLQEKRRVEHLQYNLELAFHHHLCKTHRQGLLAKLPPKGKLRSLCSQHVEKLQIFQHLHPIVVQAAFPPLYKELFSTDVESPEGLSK
Text: The Drosophila S2 cell line was originally purchased from Invitrogen and was maintained in Schneider's medium supplemented with 10% heat-inactivated bovine fetal calf serum and antibiotics (Invitrogen). […] The resulting chimeric gene was subcloned into the copper inducible pMT/V5-His A vector (Invitrogen). […] Coding sequences for firefly luciferase (Promega) were PCR amplified and subcloned into pUAST vector containing Gal4 binding enhancer sequences. Renilla luciferase construct under the polIII promoter was obtained from Dr. Dasgupta's laboratory (NYU medical center). In order to generate stable cell lines, cells were co-transfected with pMT-G4 DBD-RORγt, pMT-G4 DBD-RORα, pMT-G4 DBD-DHR3, or pMT-G4 DBDVP16 and pHygro plasmids (Invitrogen) and screened for resistant colonies in the presence of hygromycin (0.3 mg/mL). […] Using similar methods, stable clones with genomic integration of the luciferase reporters and other reporters were generated such as pMT-RORα_luc, pMT-DHR3_Luc, or pMT-VP16_luc.
(§1) The following representative compounds are tested for their RORγt inhibitory activity and toxicity.
Promega Dual-Glo system is widely used for HTS as the luciferase substrates. Cell culture medium was reduced to the final volume of 10 μl or less and 10 μl of Dual-glo and 10 μl of Stop-glo luciferase substrates were added in a sequencial manner (Promega). Firefly and Renilla luciferase activity was determined by measuring luminescence signals using an automated 384-well plate reader equipped with multiple stack units (such as the Analyst GT or Envision plate readers).
10,000 Drosophila stable S2 cells with genomic integration of the Cu2+-inducible G4 DBD-mouse RORγ construct were transfected with 5 ng of pUASTfirefly luciferase and 7 ng of Pol III-Renilla luciferase and dispensed into white bottom-tissue culture 384-well plates (Corning). […] The following morning, Stop-glo luciferase substrates (Promega) were used to measure luciferase activity.
The Drosophila S2 cell line was originally purchased from Invitrogen and was maintained in Schneider's Drosophila medium supplemented with 10% heat-inactivated bovine fetal calf serum and 1× antibiotic-antimycotic solution (Invitrogen). […] The resulting chimeric gene was subcloned into the copper inducible pMT/V5-His A vector (Invitrogen) and into the constitutive pAc vector. […] Coding sequences for firefly luciferase (Promega) were PCR amplified and subcloned into the pUAST vector containing five Gal4 binding enhancer sequences. The Renilla luciferase construct under a pol III promoter and the pAc vector were obtained from R. Dasgupta (NYU School of Medicine). To generate cell lines stably expressing various chimeric proteins upon copper addition, S2 cells were co-transfected with pMT plasmids encoding individual G4 DBD chimeric constructs and the pCoHygro plasmid (Invitrogen), before screening for resistant colonies in the presence of hygromycin (0.3 mg/mL). […] The human androgen receptor (hAR) expression plasmid pMK33-hAR and its reporter TAT3-Luc were obtained from M. Garabedian (NYU School of Medicine). […] R1881 (10 nM) and Dafachronic acid (10 μM) were used as ligands for hAR and Daf12. Upon treatment of cells with copper, in 384 well plates, there was specific increase in firefly luciferase activity versus normalized Renilla luciferase activity for all cell lines described above, validating the method for high-throughput screen.
Transfections of firefly and Renilla reporter constructs were performed using the Effectene kit from Qiagen according to the manufacturer's protocol with some modifications.

[1] = tested on: human Th17 cell differentiation; assay: Human Th17 cell differentiation from naive cord blood CD4+ T cells; type: cell-based
Method: (§2) GFP expressing cells were gated for analysis. DMSO, Dig(dhd) (40 μM) or Dig(sal) (10 μM) was added 6-8 h after viral transduction. c, Flow cytometry of the production of IL-17a and IFN-γ by human naive cord blood T cells cultured for six days in the presence of IL-2, IL-23, and IL-1β, with various concentrations of TGF-β. DMSO, Dig(dhd), or Dig(sal) at indicated concentrations (μM) was added 16 h after cytokine addition.
(§3) Blood samples were obtained from the New York Blood Center. Mononuclear cells were prepared from buffy coats from healthy adult donors or from cord blood, using FicollPAQUE gradients. CD4^+ T cells were magnetically selected (autoMACS, Miltenyi). Adult memory CD4^+ T cell subsets were further purified as CD3^+CD4^+CD25^− CD45RO^+CCR6^+CD161^+ by cell sorting on a FACSAria (BD). Naive CD4^+ T cells were isolated from cord blood as CD3^+CD4^+CD45RA^+HLA-DR^−CD25^−DAPI^−. Memory cells were activated with anti-CD3/CD28 coated beads (1 bead/cell) in T cell media (see above) supplemented with 100 U/mL IL-2 (Peprotech), 10 ng/mL IL-1b and 10 ng/mL IL-23 (eBioscience). Naive cells were activated with anti-CD3/CD28 beads and cultured with the same cytokines, and TGF-b (0, 0.1, 1, or, 10 ng/mL) (Peprotech), in XVIVO-20 (Lonza) media. […] Naive CD4^+ T cells, cultured in XVIVO-20 media supplemented 100 U/mL IL-2 (Peprotech), were transduced with RORad-IRES-GFP or RORγt-IRES-GFP on day 1 and analyzed on day 6. GFP expressing cells were gated for analysis. DMSO or compounds were added 6-8 hours after the viral transduction.
(§4) Blood samples were obtained from the New York Blood Center. Mononuclear cells were prepared from buffy coats from healthy adult donors or from cord blood, using FicollPAQUE gradients. CD4^+ T cells were magnetically selected (autoMACS, Miltenyi). Adult memory CD4+ T cell subsets were further purified as CD3^+CD4^+CD25^−CD45RO^+CCR6^+CD161^+ by cell sorting on a FACSAria (BD). Naive CD4^+ T cells were isolated from cord blood as CD3^+CD4^+CD45RA^+HLA^−DR^−CD25^−DAPI^−. Memory cells were activated with anti-CD3/CD28 coated beads (1 bead/cell) in T cell media (see above) supplemented with 100 U/mL IL-2 (Peprotech), 10 ng/mL IL-1β and 10 ng/mL IL-23 (eBioscience). Naive cells were activated with anti-CD3/CD28 beads and cultured with the same cytokines, and TGF-β (0, 0.1, 1, or, 10 ng/mL) (Peprotech), in XVIVO-20 (Lonza) media. […] Naive CD4+ T cells, cultured in XVIVO-20 media supplemented with 100 U/mL IL-2 (Peprotech), were transduced with RORαd-IRES-GFP or RORγt-IRES-GFP on day 1 and analyzed on day 6. GFP expressing cells were gated for analysis. DMSO or compounds were added 6-8 hours after the viral transduction.

human RORγt = target: T2, human RORγt (Homo sapiens, UniProt P51449); assay: IL-17a induction in human CD4+ T cells transduced with RORαd, RORβ or RORγt; type: cell-based; details: 10 μM, FIG. 3b
T2 construct: expressed in transfected cells; host or cells: human CD4+ T cells (cord blood or adult blood), lentiviral HDV-IRES-GFP/HSA vectors
T2 sequence (P51449 1-497 isoform P51449-2): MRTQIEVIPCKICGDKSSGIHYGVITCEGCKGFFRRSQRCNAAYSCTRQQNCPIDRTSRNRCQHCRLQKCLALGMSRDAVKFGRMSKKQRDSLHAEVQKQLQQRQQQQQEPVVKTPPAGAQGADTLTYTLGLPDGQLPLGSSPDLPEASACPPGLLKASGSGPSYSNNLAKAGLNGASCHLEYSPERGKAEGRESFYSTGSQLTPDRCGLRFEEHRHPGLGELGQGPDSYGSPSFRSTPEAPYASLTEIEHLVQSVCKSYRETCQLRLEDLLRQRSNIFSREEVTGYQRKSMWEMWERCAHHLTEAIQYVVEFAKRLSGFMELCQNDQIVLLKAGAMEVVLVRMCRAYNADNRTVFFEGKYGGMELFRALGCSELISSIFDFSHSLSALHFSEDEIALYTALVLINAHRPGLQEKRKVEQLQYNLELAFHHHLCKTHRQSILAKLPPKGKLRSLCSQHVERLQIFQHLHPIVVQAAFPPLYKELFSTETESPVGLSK
Method: as §2, §3
Blood samples were obtained from the New York Blood Center. Mononuclear cells were prepared from buffy coats from healthy adult donors or from cord blood, using FicollPAQUE gradients. CD4^+ T cells were magnetically selected (autoMACS, Miltenyi). Adult memory CD4+ T cell subsets were further purified as CD3^+CD4^+CD25^−CD45RO^+CCR6^+CD161^+ by cell sorting on a FACSAria (BD). […] Naive CD4+ T cells, cultured in XVIVO-20 media supplemented with 100 U/mL IL-2 (Peprotech), were transduced with RORαd-IRES-GFP or RORγt-IRES-GFP on day 1 and analyzed on day 6. […]

[2] = Precipitation noted in Table 2; type: physicochemical
[3] = tested on: IL-17a production in human CD4+ T cells; assay: Human cord blood CD4+ T cells expressing murine ATP1a1, Th17 conditions; type: cell-based; details: murine Na+/K+-ATPase α1 expressed, 10 μM
Method: as §4

[4] = tested on: human embryonic kidney 293t cell lines; assay: Toxicity on human embryonic kidney 293T cells
Method: as §1

Na+/K+-ATPase = details: compared with digoxin; cited from earlier work

Row | Structure (SMILES) | IC50 (mouse RORγt) | IFN-γ expression in T cells ([1]; FIG. 3c) | Th17 cell differentiation ([1]; FIG. 3c) | inhibition at 10 µM ([1]; Homo sapiens, CD4+ T, at 10 uM) | RORγt-mediated IL-17a induction (versus RORαd) (human RORγt) | Note [2] | effect on RORγ transcriptional activity (mouse RORγt) | IL-17a expression [3] | cytotoxic concentration on human cells [4] | Na+/K+-ATPase inhibition / binding affinity (Na+/K+-ATPase)
1 | CC1OC(OC2C(O)CC(OC3C(O)CC(OC4CCC5(C)C(CCC6C5CC(O)C5(C)C(C7=CC(=O)OC7=Cc7ccccc7O)CCC65O)C4)OC3C)OC2C)CC(O)C1O (centres unmarked) [Compound 15, Digoxin-21-salicylidene] | < 1000 nM | reciprocal increases | blocked | ~70% | selectively suppressed | precipitate at high |  |  |  | 
2 | CC(=O)O[C@H]1C[C@H](O[C@H]2[C@@H](O)C[C@H](O[C@H]3[C@@H](O)C[C@H](O[C@H]4CC[C@@]5(C)[C@H](CC[C@@H]6[C@@H]5C[C@@H](O)[C@]5(C)[C@@H](C7=CC(=O)OC7)CC[C@]65O)C4)O[C@@H]3C)O[C@@H]2C)O[C@H](C)[C@H]1O[C@@H]1O[C@H](CO)[C@@H](O)[C@H](O)[C@H]1O [lanatoside C, Lanatoside C] |  |  |  |  |  |  | no significant effect | no effect |  | 
3 | CC1OC(OC2C(O)CC(OC3C(O)CC(OC4CCC5(C)C(CCC6C5CC(O)C5(C)C(C7COC(=O)C7)CCC65O)C4)OC3C)OC2C)CC(O)C1O (centres unmarked) [20,22-Dihydrodigoxin] |  |  |  |  |  |  | inhibited |  | 2.5 µM | much lower binding affinity than that of digoxin
